{"source": "patent US20250177478A1", "about": "“G ALPHA Q/11 INHIBITORS FOR USE AS AN ANALGESIC” (University of Florida Research Foundation, Incorporated, priority 2022, published 2025)", "key": {"C57BL/6 mice": {"test_system": "C57BL/6 mice", "conditions": "morphine 5 mg/kg s.c. alone, 120 min", "from_the_text": "A. Experimental animals. C57BL/6 mice (6-8 weeks old) of both sexes were used. Mice were housed in groups on a 12-h light-dark cycle (6:00 am light cycle; 6:00 pm dark cycle) with food (Teklad Global 16% protein rodent diets; Envigo Inc., WI, USA) and water available ad libitum. Animal groups were compiled to ensure minimization of factors (e.g., weight, sex, and health). Mice were within 20-28 g in weight at start of all studies. All tested groups contained a control group and consisted of male and female mice. Males and females were tested on the same day but at different times so that they were not in the room at the same time. All the experiments were tested during the light cycle between 8:00 am and 3:00 pm to avoid any long-term disruption of sleep cycles. Mice were transferred to the behavioural testing room at least 45 min before the first test to acclimatize. Following behavioural evaluation, animals were killed by CO2 inhalation, followed by cervical dislocation and postmortem decapitation.\nB. Drug treatments. […] The dose of YM-254890 for subcutaneous injection was taken from previous published studies. The dose of morphine selected for subcutaneous administration (2.5, 5 and 10 mg kg-1) is commonly used in mouse analgesia. For the combined administration of morphine and YM-254890 on thermal anti-nociception, YM-254890 was administered 10 min before the morphine. The latency of response was measured before injection of drugs (baseline latency response) and at different time intervals (post-treatment latency response) after drugs injection.\nC. Intrathecal injections. Intrathecal (i.t.) administration was performed following the method described previously (Hylden J L et al. “Intrathecal morphine in mice: a new technique.” Eur J Pharmacol (1980) 67:313-316; Li D et al. “Direct Intrathecal Injection of Recombinant Adeno-associated Viruses in Adult Mice.” J Vis Exp (2019)) with slight modifications. All intrathecal injections were performed using a 25 μL Hamilton syringe with a 30-gauge needle. The injection volume was 5 μL for each mouse. […] Each solution was injected without injection cannulae. Intrathecal injections were made into the L5-L6 intervertebral space of unanesthetized mice. The flick of the tail was considered indicative of a successful i.t. administration."}, "DRG nociceptors": {"test_system": "DRG nociceptors", "assay": "Whole cell patch-clamp recordings of acutely dissociated DRG nociceptors", "type": "cell-based, mouse", "experimental": "F. Acutely dissociated dorsal root ganglion (DRG) Preparation. Male or female mice between 1 and 2 months of age were used for acute DRG isolations. […] Dissociated DRG cultures were prepared as previously described (Perner C et al. “Protocol for dissection and culture of murine dorsal root ganglia neurons to study neuropeptide release.” STAR Protoc (2021) 2:100333). Briefly, DRGs were dissected from 1- to 2-month-old mice in Hank's buffered salt solution (HBSS) and digested with Collagenase A and Dispase II for 25 min at 37° C., centrifuged at 200×g for 5 min, and washed with Dulbecco's modified Eagle's medium (DMEM) supplemented with 10% fetal bovine serum (FBS), glutamate, sodium pyruvate, 1% penicillin and 1% streptomycin. DRGs were then triturated in Neurobasal A medium supplemented with 10% FBS, 1% penicillin, 1% streptomycin, 1% GlutaMAX, 2% B27, […] nerve growth factor (NGF) and […] glial cell line-derived neurotrophic factor (GDNF). After plating on laminin-coated coverslips, cells were incubated at 37° C. overnight. Experiments were performed the day after dissection.\nG. Whole cell patch-clamp recordings. Nociceptors were identified by physiological classification protocols (Petruska J C et al. “Subclassified acutely dissociated cells of rat DRG: histochemistry and patterns of capsaicin-, proton-, and ATP-activated currents.” J Neurophysiol (2000) 84:2365-2379) summarized in FIG. 10 and further by responsivity to morphine. Each experimental group consisted of 12-18 DRG recordings from three animals, 1-2 of which were female. Hyperpolarization-activated current (Ih) and kinetics of resulting transient currents were determined by stepping membrane potential from −60 to −110 mV for 500 ms in 10 mV increments (FIG. 10A). Outward currents were identified by first preconditioning membrane potential at −100 mV for 500 ms and then stepping from −60 to 40 mV in 20 mV increments for 200 ms (FIG. 10D). Inward current dynamics were determined by preconditioning at −80 mV and then stepping from −60 to 40 mV in 10 mV increments (FIG. 10G). A 6-s, 0- to 2-nA continuous ramp stimulation protocol was used to determine rheobase. Membrane capacitance (Cm), series resistance (Rs) and input resistance (Ri) were tested with a hyperpolarizing 10 mV pulse of 10 ms duration initially and at a 30 s interval throughout the recording period. Cells were recorded only if initial series resistance was ≤20 MΩ and excluded if Rs varied >20% while recording. Offline analysis identified clustering of a population n=30 with uniform morphine responsivity that was selected for further analysis, with basal parameters #SEM: Cm=27.31±4.72 pF, Ri=492±19.29 MQ, Ih=7.10±2.45 pA·pF−1, IA tau=8.39±0.41 ms and action potential (AP) tau=1.22±0.08 ms. K+ internal was used for all recordings, containing: 6 mM NaCl, 4 mM NaOH, 130 mM K-gluconate, 11 mM ethylene glycol-bis(β-aminoethyl ether)tetraacetic acid (EGTA), 1 mM CaCl2, 1 mM MgCl2, 10 mM N-(2-hydroxyethyl)piperazine-N′-(2-ethanesulphonic acid) (HEPES), 2 mM Na2ATP, and 0.2 mM Na2GTP 0.2, adjusted to pH 7.3-7.4 with HCl. External artificial CSF contained: 125 mM NaCl, 3 mM KCl, 1.2 mM KH2PO4, 1.2 mM MgSO4, 25 mM NaHCO3, 2 mM CaCl2), and 10 mM dextrose 10, adjusted to pH 7.3-7.4 with HCl."}}}
{"compound": "CN1CC[C@]23c4c5ccc(O)c4O[C@H]2[C@@H](O)C=C[C@H]3[C@H]1C5", "note": "[morphine]", "values": [{"measurement": "locomotion in open-field test", "setting": "C57BL/6 mice", "result": "locomotor-sensitizing effect"}, {"measurement": "rapidly inactivating A-type potassium currents (IA), voltage-step protocol 2", "setting": "DRG nociceptors; YM-254890 or morphine alone", "result": "significantly inhibited IA"}, {"measurement": "AP amplitude, voltage-step protocol", "setting": "DRG nociceptors; bath application alone: 100 nM YM or 1 μM morphine", "result": "moderately reduced AP amplitude"}, {"measurement": "excitability of DRG nociceptors (rheobase, 0-2 nA ramp stimulation)", "setting": "DRG nociceptors; bath application alone: 1 μM morphine or 100 nM YM", "result": "substantially decreased excitability"}]}
